Data published in ChEMBL document CHEMBL1201862, “PubChem BioAssay data set” (2004).
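Grown in 96-well plates, cells were treated for 48 hours with each compound at five concentrations. Insufficient inhibition: endpoint recorded as highest concentration tested. GI50 = concentration required for 50% inhibition of growth.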 Activity calls are given as the source filed them. Cut-off read from the data, not from the text of the source: active = GI50 up to about 1.1 µM and inactive = higher.

Experiments:
Experiment in all cases: NCI tumour cell line growth inhibition, 48 h
HCC 2998 = test system: HCC 2998
SNB-75 = test system: SNB-75
OVCAR-4 = test system: OVCAR-4
Hs-578T = test system: Hs-578T
HCT-116 = test system: HCT-116
UACC-62 = test system: UACC-62
UO-31 = test system: UO-31
SK-MEL-2 = test system: SK-MEL-2
IGROV-1 = test system: IGROV-1
A498 = test system: A498
U-251 = test system: U-251
EKVX = test system: EKVX
MDA-N = test system: MDA-N
CAKI-1 = test system: CAKI-1
HOP-62 = test system: HOP-62
SNB-19 = test system: SNB-19
MDA-MB-435 = test system: MDA-MB-435
MCF7 = test system: MCF7
HT-29 = test system: HT-29
LOX IMVI = test system: LOX IMVI
NCI-H23 = test system: NCI-H23
SN12C = test system: SN12C
SR = test system: SR
K562 = test system: K562
786-0 = test system: 786-0
NCI-H522 = test system: NCI-H522
PC-3 = test system: PC-3
Malme-3M = test system: Malme-3M
SF-295 = test system: SF-295
M14 = test system: M14
A549 = test system: A549
RPMI-8226 = test system: RPMI-8226
NCI-H226 = test system: NCI-H226
RXF 393 = test system: RXF 393
T47D = test system: T47D
MDA-MB-231 = test system: MDA-MB-231
SF-539 = test system: SF-539
DU-145 = test system: DU-145
HCT-15 = test system: HCT-15
SW-620 = test system: SW-620
SK-MEL-5 = test system: SK-MEL-5
ACHN = test system: ACHN
SK-MEL-28 = test system: SK-MEL-28
SF-268 = test system: SF-268
COLO 205 = test system: COLO 205
UACC-257 = test system: UACC-257
NCI-H460 = test system: NCI-H460
BT-549 = test system: BT-549
TK-10 = test system: TK-10
KM12 = test system: KM12
OVCAR-5 = test system: OVCAR-5
NCI/ADR-RES = test system: NCI/ADR-RES
SK-OV-3 = test system: SK-OV-3
OVCAR-8 = test system: OVCAR-8
HOP-92 = test system: HOP-92
CCRF-CEM = test system: CCRF-CEM
OVCAR-3 = test system: OVCAR-3
MOLT-4 = test system: MOLT-4
HL-60 = test system: HL-60

`Nc1nc(O)c2nc3c(nc2n1)C(=O)N(c1ccc(C(=O)O)cc1)C3` was tested, and the GI50 (HCC 2998) was > 100 µM (inactive), the GI50 (SNB-75) was > 100 µM (inactive) and the GI50 (OVCAR-4) was > 100 µM (inactive). For the same molecule, the GI50 (Hs-578T) was > 100 µM (inactive), the GI50 (HCT-116) was > 100 µM (inactive) and the GI50 (UACC-62) was > 100 µM (inactive). The GI50 (UO-31) was > 100 µM (inactive), the GI50 (SK-MEL-2) was > 100 µM (inactive) and the GI50 (IGROV-1) was > 100 µM (inactive). For the same molecule, the GI50 (A498) was > 100 µM (inactive), the GI50 (U-251) was > 100 µM (inactive) and the GI50 (EKVX) was > 100 µM (inactive). The GI50 (MDA-N) was > 100 µM (inactive), the GI50 (CAKI-1) was > 100 µM (inactive) and the GI50 (HOP-62) was 29.4 µM (inactive). For the same molecule, the GI50 (SNB-19) was > 100 µM (inactive), the GI50 (MDA-MB-435) was > 100 µM (inactive) and the GI50 (MCF7) was > 100 µM (inactive). The GI50 (HT-29) was > 100 µM (inactive), the GI50 (LOX IMVI) was > 100 µM (inactive) and the GI50 (NCI-H23) was > 100 µM (inactive). The GI50 (SN12C) was > 100 µM (inactive), the GI50 (SR) was > 100 µM (inactive) and the GI50 (K562) was > 100 µM (inactive). For the same molecule, the GI50 (786-0) was > 100 µM (inactive), the GI50 (NCI-H522) was > 100 µM (inactive) and the GI50 (PC-3) was > 100 µM (inactive). The GI50 (Malme-3M) was > 100 µM (inactive), the GI50 (SF-295) was > 100 µM (inactive) and the GI50 (M14) was > 100 µM (inactive). The GI50 (A549) was > 100 µM (inactive), the GI50 (RPMI-8226) was > 100 µM (inactive) and the GI50 (NCI-H226) was > 100 µM (inactive). The GI50 (RXF 393) was > 100 µM (inactive), the GI50 (T47D) was > 100 µM (inactive) and the GI50 (MDA-MB-231) was > 100 µM (inactive). The GI50 (SF-539) was > 100 µM (inactive), the GI50 (DU-145) was > 100 µM (inactive) and the GI50 (HCT-15) was greater than 100 µM. The GI50 (SW-620) was > 100 µM (inactive), the GI50 (SK-MEL-5) was > 100 µM (inactive) and the GI50 (ACHN) was > 100 µM (inactive). The GI50 (SK-MEL-28) was > 100 µM (inactive), the GI50 (SF-268) was > 100 µM (inactive) and the GI50 (COLO 205) was > 100 µM (inactive). The GI50 (UACC-257) was > 100 µM (inactive), the GI50 (NCI-H460) was > 100 µM (inactive) and the GI50 (BT-549) was > 100 µM (inactive). For the same molecule, the GI50 (TK-10) was > 100 µM (inactive), the GI50 (KM12) was > 100 µM (inactive) and the GI50 (OVCAR-5) was > 100 µM (inactive). The GI50 (NCI/ADR-RES) was > 100 µM (inactive), the GI50 (SK-OV-3) was > 100 µM (inactive) and the GI50 (OVCAR-8) was > 100 µM (inactive). The GI50 (HOP-92) was > 100 µM (inactive).
`C#CCn1c(=O)ccn(/C(=C\C(=O)OCC)C(=O)OCC)c1=O` was tested, and the GI50 (HCC 2998) was 19.9 µM (inactive), the GI50 (SNB-75) was 20 µM (inactive) and the GI50 (OVCAR-4) was 2.85 µM (inactive). The GI50 (Hs-578T) was 27.7 µM (inactive), the GI50 (HCT-116) was 5.53 µM (inactive) and the GI50 (UACC-62) was 14.2 µM (inactive). For the same molecule, the GI50 (UO-31) was 13.5 µM (inactive), the GI50 (SK-MEL-2) was 16.4 µM (inactive) and the GI50 (IGROV-1) was 9.08 µM (inactive). For the same molecule, the GI50 (A498) was 17.1 µM (inactive), the GI50 (U-251) was 14.3 µM (inactive) and the GI50 (EKVX) was 6.28 µM (inactive). The GI50 (MDA-N) was 15.8 µM (inactive), the GI50 (CAKI-1) was 1.03 µM (active) and the GI50 (HOP-62) was 23.5 µM (inactive). For the same molecule, the GI50 (SNB-19) was 19.9 µM (inactive), the GI50 (MDA-MB-435) was 7.33 µM (inactive) and the GI50 (MCF7) was 2.87 µM (inactive). The GI50 (HT-29) was 2.04 µM (inactive), the GI50 (LOX IMVI) was 12.2 µM (inactive) and the GI50 (NCI-H23) was 14.9 µM (inactive). The GI50 (SN12C) was 8.89 µM (inactive), the GI50 (SR) was 5.02 µM (inactive) and the GI50 (K562) was 3.54 µM (inactive). For the same molecule, the GI50 (786-0) was 2.3 µM (inactive), the GI50 (PC-3) was 15 µM (inactive) and the GI50 (CCRF-CEM) was 0.381 µM (active). For the same molecule, the GI50 (Malme-3M) was 1.89 µM (inactive), the GI50 (SF-295) was 22.9 µM (inactive) and the GI50 (M14) was 4.32 µM (inactive). For the same molecule, the GI50 (A549) was 22.8 µM (inactive), the GI50 (RPMI-8226) was 2.73 µM (inactive) and the GI50 (NCI-H226) was 19.9 µM (inactive). For the same molecule, the GI50 (RXF 393) was 2.08 µM (inactive), the GI50 (T47D) was 3.52 µM (inactive) and the GI50 (MDA-MB-231) was 18.1 µM (inactive). For the same molecule, the GI50 (SF-539) was 1.86 µM (inactive), the GI50 (OVCAR-3) was 5.61 µM (inactive) and the GI50 (DU-145) was 15.6 µM (inactive). The GI50 (HCT-15) was 1.51 µM, the GI50 (SW-620) was 1.68 µM (inactive) and the GI50 (SK-MEL-5) was 20.5 µM (inactive). The GI50 (ACHN) was 1.64 µM (inactive), the GI50 (SK-MEL-28) was 11.7 µM (inactive) and the GI50 (SF-268) was 19.9 µM (inactive). The GI50 (COLO 205) was 1.11 µM (active), the GI50 (UACC-257) was 15.3 µM (inactive) and the GI50 (MOLT-4) was 2.56 µM (inactive). For the same molecule, the GI50 (NCI-H460) was 2.63 µM (inactive), the GI50 (BT-549) was 12.4 µM (inactive) and the GI50 (TK-10) was 1.81 µM (inactive). The GI50 (KM12) was 22.8 µM (inactive), the GI50 (OVCAR-5) was 13.5 µM (inactive) and the GI50 (NCI/ADR-RES) was 7.64 µM (inactive). The GI50 (SK-OV-3) was 33 µM (inactive), the GI50 (HL-60) was 2.93 µM (inactive) and the GI50 (OVCAR-8) was 2.31 µM (inactive). For the same molecule, the GI50 (HOP-92) was 2.16 µM (inactive).
In the case of `Oc1ccc2cc(Br)ccc2c1-c1c(O)ccc2ccc(Br)cc12`, the GI50 (HCC 2998) is reported as 6.52 µM (inactive), the GI50 (SNB-75) is reported as 4.73 µM (inactive) and the GI50 (Hs-578T) is reported as 11.9 µM (inactive). For the same molecule, the GI50 (HCT-116) was 14.4 µM (inactive), the GI50 (UACC-62) was 17.3 µM (inactive) and the GI50 (UO-31) was 15.3 µM (inactive). The GI50 (SK-MEL-2) was 16 µM (inactive), the GI50 (IGROV-1) was 8.3 µM (inactive) and the GI50 (A498) was 17.3 µM (inactive). For the same molecule, the GI50 (U-251) was 14.1 µM (inactive), the GI50 (MDA-N) was 12.2 µM (inactive) and the GI50 (CAKI-1) was 18.8 µM (inactive). For the same molecule, the GI50 (HOP-62) was 14.7 µM (inactive), the GI50 (SNB-19) was 15.4 µM (inactive) and the GI50 (MDA-MB-435) was 16.2 µM (inactive). For the same molecule, the GI50 (MCF7) was 13 µM (inactive), the GI50 (HT-29) was 3.07 µM (inactive) and the GI50 (NCI-H23) was 14.4 µM (inactive). For the same molecule, the GI50 (SN12C) was 12 µM (inactive), the GI50 (SR) was 14.3 µM (inactive) and the GI50 (K562) was 18.5 µM (inactive). The GI50 (786-0) was 13.8 µM (inactive), the GI50 (NCI-H522) was 15.2 µM (inactive) and the GI50 (PC-3) was 12.6 µM (inactive). For the same molecule, the GI50 (CCRF-CEM) was 13 µM (inactive), the GI50 (Malme-3M) was 13.4 µM (inactive) and the GI50 (SF-295) was 15.4 µM (inactive). For the same molecule, the GI50 (M14) was 17.8 µM (inactive), the GI50 (A549) was 15.2 µM (inactive) and the GI50 (NCI-H226) was 13.2 µM (inactive). The GI50 (T47D) was 12.7 µM (inactive), the GI50 (MDA-MB-231) was 10 µM (inactive) and the GI50 (SF-539) was 18.5 µM (inactive). For the same molecule, the GI50 (OVCAR-3) was 13.9 µM (inactive), the GI50 (DU-145) was 15.8 µM (inactive) and the GI50 (HCT-15) was 14.9 µM. The GI50 (SW-620) was 11.7 µM (inactive), the GI50 (SK-MEL-5) was 23 µM (inactive) and the GI50 (ACHN) was 14.8 µM (inactive). For the same molecule, the GI50 (SK-MEL-28) was 18.7 µM (inactive), the GI50 (SF-268) was 20 µM (inactive) and the GI50 (COLO 205) was 13.6 µM (inactive). The GI50 (UACC-257) was 18.5 µM (inactive), the GI50 (MOLT-4) was 4.85 µM (inactive) and the GI50 (NCI-H460) was 4.12 µM (inactive). The GI50 (BT-549) was 14.7 µM (inactive), the GI50 (TK-10) was 16.7 µM (inactive) and the GI50 (KM12) was 6.84 µM (inactive). For the same molecule, the GI50 (OVCAR-5) was 16.9 µM (inactive), the GI50 (NCI/ADR-RES) was 13.6 µM (inactive) and the GI50 (SK-OV-3) was 12.2 µM (inactive). The GI50 (HL-60) was 5.42 µM (inactive) and the GI50 (OVCAR-8) was 14.4 µM (inactive).
